Assay results reported in a melting point compilation (Tetko et al.; mined from patent text by program, amines drawn as free bases though some values may be those of a salt).

Structure (SMILES) | melting point [°C]
O=[N+]([O-])c1cnc2cc(Cl)ccc2c1O | > 300
CCC(C)(C)C(O)(C#Cc1cccnc1)c1cncnc1 (stereo not drawn) | 170 to 172
C[C@@H](O)c1cc2ccoc2cn1 | 59.5 to 60.5
N#CCCNC(=O)c1cccc(-c2ccc3c(n2)N(c2ccc(Cl)cc2Cl)CC3)c1 | 219 to 220
CC=C(C(=O)OC(c1ccccc1)c1ccccc1)N1C(=O)[C@@H]2N=C(Cc3ccccc3)O[C@@H]21 | 104 to 106
CC(C)(C)C1CCN(CCCC(=O)c2ccc3c(c2)-c2ccc(C(=O)CCCN4CCC(C(C)(C)C)CC4)c4cccc-3c24)CC1 | 150 to 152
O=c1c2c(Cc3ccccc3)n[nH]c2c2cccnc2n1-c1cccc(OC(F)(F)F)c1 | 249 to 251
CCOC(=O)C1=CC2(CCC1S(=O)(=O)Nc1ccc(F)cc1Cl)SCCS2 (stereo not drawn) | 160 to 161
CC1(C)OCC(=CCn2cnc3c(Cl)nc(N)nc32)CO1 | 157 to 159
COc1ccc(C(=O)C(C)(C)Br)c(Cl)c1Cl | 72 to 73
O=P1(c2ccccc2)c2ccccc2CN1c1ccc(Br)cc1 (stereo not drawn) | 200 to 202
O=C(N[C@H]1CC[C@H](O)CC1)c1cc(F)cnc1Cl | 197 to 200
O=C1Nc2ccccc2C(c2ccccc2F)=NC1Cc1cccs1 (racemic) | 189 to 191
C#Cc1cnc(OCCC)c(-c2nc3c(CC)nn(CCN4CCOCC4)c3c(=O)[nH]2)c1 | 137 to 139
CCOC(=O)c1c(N2CCN(c3ccccc3)CC2)c2ccc(C)nc2n(CC)c1=O | 110 to 112
CC(C)(C)C(NC(=O)c1ccccc1)Nc1c(Nc2cccnc2)c(=O)c1=O (stereo not drawn) | 246 to 247
CCN(CC)C(=O)c1ccccc1-c1ccc(F)cc1 | 57 to 59
C[Si](C)(C)CCOCn1ccc(=O)[nH]c1=O | 120 to 122
Cn1cc(-c2ccncn2)ccc1=O | 147 to 149
Cc1ccc2c(c1)N(C1CC1)CNS2(=O)=O | 157 to 158
CCOC1Nc2c(OC(C)=O)cccc2C(=O)N2CCCC12 (stereo not drawn) | 146 to 149
Cc1noc(NC(=O)N2CCN(c3cc(-c4cccc(F)c4F)ncn3)CC2)c1C | 210 to 211
CCOC(=O)c1n[nH]cc1[N+](=O)[O-] | 128 to 130
COC(COc1cc(-n2ncc(C(F)(F)F)c(C)c2=O)c(F)cc1Cl)OC | 86
CCOc1ccc(CC(=O)Nc2ccc(S(=O)(=O)Nc3ccccc3C(=O)O)cc2)cc1 | 241 to 242

Structure (SMILES) | melting point [°C]
O=C(O)c1cnc2c3ccccc3ccn2c1=O | 219 to 231
CCc1c(Cl)c2ccccn2c1C(=O)c1ccc(O)c(Br)c1 | 204
CN1CCN(c2cc(C(=O)Nc3ccc4c(c3)-c3c(c(C(N)=O)nn3-c3ccc(F)cc3)CC4)ccn2)CC1 | 277 to 279
CCOCc1cc(N2C(=O)C3=C(CCCC3)C2=O)c(F)cc1Br | 104 to 106
O=S(=O)(c1c(-c2ccc(Cl)cc2)[nH]c(SC(F)(F)F)c1Br)C(F)(F)F | 122 to 125
Cc1nc(N2CCN(CC3CC3)C2=O)sc1-c1cc[nH]n1 | 169 to 171
Cc1ccc2c(c1)OCc1nc(C(=O)O)cn1-2 | 278 to 279
COc1cccc(Cn2c(-c3ccccc3)nc(Cl)c2CC(=O)O)c1 | 135 to 138
CC(c1ccc(CCn2cnc3cc(-c4ccc(Cl)cc4)sc3c2=O)cc1)N1CCCCC1 (stereo not drawn) | 175 to 179
C[C@H](C#Cc1ccc(Cc2ccc(Cl)cc2)s1)N(O)C(N)=O | 132
CS(=O)(=O)c1ccc(-c2cnn(Cc3cccc([N+](=O)[O-])c3)c(=O)c2-c2ccc(F)cc2)cc1 | 156 to 157
COc1cc(C#CC(=O)c2ccccc2)cc(OC)c1OC | 158 to 160
CCCCc1nn(-c2ccccc2Cl)c(=O)n1Cc1ccc(-c2ccccc2S(=O)(=O)NC(=O)C(F)(F)F)cc1 | 163 to 166
ClCOc1ccc(-c2ccc(Cl)cc2)cc1 | 68 to 70
CC(CCCOc1ccc(C2=C(c3ccccc3)CCCc3cc(O)ccc32)cc1)S(=O)(=O)Cc1ccco1 (stereo not drawn) | 168
Fc1ccc(CNc2nc(OCc3ccccc3)nc(OCC(F)(F)F)n2)cc1 | 101 to 103
O=C(CNc1ccccc1)Nc1c(Cl)ccc2nc(N3CC[C@@H](O)C3)ccc12 | 230 to 232
Cc1cc(C(=O)O)cc(Cl)c1O | 242 to 244
N#Cc1cnn2c(-c3ccccc3C(F)(F)F)ccnc12 | 196 to 197
CCCCCCCCCCCC1OC1CO (stereo not drawn) | 68 to 70
N#CC1(c2ccc(C(=O)c3cccs3)cc2)CC1 | 106
CCOC(=O)C(C)Oc1ccc(Oc2cnc3ccc(Cl)cc3c2)cc1 (stereo not drawn) | 98
Cc1cccc(C)c1NCCNCC(O)COc1cccc2[nH]ncc12 (stereo not drawn) | 127 to 128
CN(CC1OCCO1)c1nccc(Oc2ccc(NC(=O)c3cc(F)cc(N4CCOCC4)c3)c3ccccc23)n1 | 111 to 112
COc1cc(OC)c2c(=O)[nH]c(-c3ccc(OC)c(-c4ccc(C(=O)N(C)C)cc4C)n3)nc2c1 | 248 to 251

Structure (SMILES) | melting point [°C]
Cc1ccc(S(=O)(=O)OCC2Cc3cc(C(F)(F)F)cc(Br)c3O2)cc1 (stereo not drawn) | 95 to 97
CN1C(=O)CC(c2ccccc2)C1C(O)C=Cc1ccc(F)cc1 (stereo not drawn) | 189 to 191
Oc1ccc(-c2nnc(CCCCCCCc3ccccc3)o2)cc1 | 138 to 140
CC(C)Oc1ccc(CCCOc2nn(Cc3ccccc3)cc2CC(=O)O)c(Oc2ncc(Cl)cc2Cl)c1 | 111 to 113
NC(=O)c1[nH]c2ccc(Cl)cc2c1S(=O)(=O)c1ccc(Cl)cc1 | 275 to 277
O=C(Nc1ccc(Br)cc1)C(=O)N1CCC(Cc2ccc(F)cc2)CC1 | 156 to 158
N#Cc1cc(C(F)(F)F)cnc1O | 170 to 175
C1=CC2=C(CCCC2)n2c3c(c4cnccc42)CCC=C13 | 134 to 137
C[C@H](N)C(=O)N(C(=O)OCc1ccccc1)c1ccccc1 | 161 to 163
BrC(Br)(Br)c1ccc2cc(I)ccc2n1 | 124 to 126
Nc1ccccc1CNC(=O)C1Cc2ccccc2N1S(=O)(=O)c1ccc(-c2ccc(F)cc2F)cc1 (stereo not drawn) | 93 to 96
CN(C)C1(c2ccccc2Cl)C(=O)N(Cc2ccc([N+](=O)[O-])cc2)c2ccc(Cl)cc21 (stereo not drawn) | 189 to 193
CC(C)(c1ccccc1)c1ccc2nc(-c3ccc(C(F)(F)F)cc3)oc(=O)c2c1 | 104 to 105
CC(C)c1cccc(CO)c1NC(=O)CC1c2ccccc2Oc2ccccc21 | 155 to 156
O=C1COC(=O)C1=Cc1cccc(C(F)(F)F)c1 | 108 to 109
O=C(Nc1cccc(-c2ccnc3c(C(=O)c4cccs4)cnn23)c1)c1c(Cl)cccc1Cl | 245 to 246
Clc1cc(NC23CC4CC(CC(C4)C2)C3)nc(N2CCCC2)n1 | 186 to 190
C=CCOc1cccc(-c2n[nH]c(-c3ccccc3C)n2)c1 | 72 to 75
Cc1cc(Cl)cc(C(=O)NC(C)C)c1NC(=O)c1cc(C(F)(F)F)nn1-c1ncccc1Cl | 195 to 196
CC(=O)N[C@@H](CSC(C)=O)C(=O)NCCSC(=O)C(C)C | 115 to 117
CCNC(=O)Cc1ccc2ccn(C3CCN(CCc4ccc(F)cc4)CC3)c2c1 | 160
Cc1cccc(-n2nc(Sc3ccc(Cl)cc3)c(C)c(C#N)c2=O)c1 | 163 to 165
Cc1c(-c2ccc(N3CCOC3=O)cc2)nc2n1CCc1ccccc1C2OC1CCN(C)CC1 (stereo not drawn) | 214
CC(C)c1cc(Oc2ccc(Cl)cc2)nc(C(C)C)c1N | 86 to 88
O=C(CCCCOc1ccc(C2=NCCO2)cc1)c1ccc(Cl)s1 | 143 to 144

Structure (SMILES) | melting point [°C]
CCOC(=O)c1oc2ccc(OC)cc2c1OCC | 50 to 51
O=c1cc(CBr)c2ccc(O)cc2o1 | 182 to 184
Cc1cc(C)nc(NC(=O)c2ccn3c2CSC3c2cccnc2)c1 (stereo not drawn) | 171
[N-]=[N+]=NCCOc1ccc(/C(=C(\c2ccccc2)C(F)(F)F)c2ccccc2)cc1 | 110 to 118
Cc1cc(-c2nc(COc3ccc(CCCCn4ccnc4)cc3)co2)sc1Br | 85 to 86
CN(C)CCC(Oc1ccc(NS(C)(=O)=O)cc1)c1ccccc1 (stereo not drawn) | 145 to 147
CCOC(=O)C1=C(C)NC(C)=C(/C=C/S(=O)(=O)NC(C)C)C1Cc1cccc([N+](=O)[O-])c1 (stereo not drawn) | 191 to 193
CC1=NC(NC(=O)Nc2cccc(C)c2)C(=O)N(CC(=O)C2CCCCC2)c2c(C)cccc21 (stereo not drawn) | 179 to 181
Cc1ccc(C(C=O)=CN(C)C)c([N+](=O)[O-])c1 | 117 to 119
CNc1nc(Nc2ccc(S(C)=O)cc2)ncc1[N+](=O)[O-] (stereo not drawn) | 288
O=S1(=O)c2cccc3cccc(c23)N1CCCN1CCN(c2nsc3ccccc23)CC1 | 172 to 173
O=C1NCN(c2ccc(F)cc2)C12CCN(CCCn1c(=O)[nH]c3ccccc31)CC2 | 215
CCOCC1=CC(=O)C=C2CCC3C4CCC(=O)C4(C)CCC3C21C (stereo not drawn) | 95 to 98
CCc1c(C(=O)O)sc2[nH]c(=O)c(=O)[nH]c12 | 230 to 232
COc1cccc2c(Nc3ccccc3C)nc(Nc3ccccc3C)nc12 | 185 to 187
CCCCC(=O)C(=C1NCCCS1)[N+](=O)[O-] | 61.5 to 64
CC(C)(C)c1cc(OCCCc2nnn[nH]2)cc(C(C)(C)C)c1O | 179 to 180
O=C(O)CCc1cn(Cc2ccc(OCc3ccc(-c4ccccc4)cn3)cc2)nc1-c1ccc(F)cc1 | 162 to 163
O=C(NCCO)c1ccc(-c2ccc3nnn(Cc4ccc5ncccc5c4)c3n2)cc1 | > 260
O=C(O)CSc1nc(-n2cc(C3c4ccccc4C=Cc4ccccc43)c(=S)[nH]c2=O)ncc1-c1ccc(CC(=O)O)cc1 | 280
CC(O)CN(Oc1ccccc1C1CCCCC1)C1CCCC(C2CNC(=O)N2)C1 (stereo not drawn) | 117 to 120
Cc1csc2[nH]c(=O)oc(=O)c12 | 220
COc1cc2cc(-c3ccc4c(c3)OCO4)nc(C)c2cc1OC | 174
